“Also recorded” adds a separate entry of the source. Ends that are not written are not given here.
Key:
permeabilized HeLa cells = assay: Nuclear uptake in digitonin-permeabilized cells, fluorescence microscopy; assay type: cell-based; parameters: key to Nuclear Import of PV-S413 / Nuclear uptake: +: Most of the nuclei in the microscopic fields are highly fluorescent; −: No fluorescence in the nuclei; +/−: Most of the nuclei are very weakly fluorescent
Method: FIGS. 2a-d: Nuclear import of PV-S413 in permeabilized HeLa cells: fluorescence microscopy observations. All experimental conditions were as described in Experimental Procedures and in legend to Table 3. Digitonin permeabilized HeLa cells were incubated in the presence of reticulocyte extract at 30° C. for 1 hour with 1 μM of the following:
HeLa cells were cultivated on 10 mm cover slips to sub confluent density and then permeabilized with digitonin as described previously [Friedler, A. et al. (1998) Biochemistry 37, 5616-5622]. The cells were incubated with the peptides and nuclear import was followed by fluorescence microscopy as described [Friedler, A. et al. (1998) id ibid.].
Experimental conditions of nuclear import in digitonin-permeabilized cells (complete system) were as described. PV-S413 was used at 1 mM and all incubations were performed at 37° C. in the presence of reticulocyte lysate, unless otherwise indicated. Additions: GTPγS (20 mM) and the following unlabeled peptides SV40 T-Ag NLS, S413 and PV-S413 at a ratio of 1:100 (mol/mol).
Unlabeled peptides RR-S413, SV40 T-Ag-NLS, Rev and Tat ARM were added at a peptide ratio of 1:100 (mole/mole).

HeLa cells [1] = assay: Penetration of Lissamine Rhodamine-labeled synthetic peptides into intact cultured cells, fluorescence microscopy; assay type: cell-based; conditions: for cell penetration and intracellular localization in intact HeLa cells (FIG. 1): 37° C., 5 μM; for cell penetration and intracellular localization in intact HeLa cells (FIG. 1) / cell penetration and nuclear accumulation in intact HeLa cells (FIG. 3): 30 minutes; for cell penetration and nuclear accumulation in intact HeLa cells (FIG. 3): 10 μM Rev at 37° C., 2 μM of RR-S413; for co-penetration of free fluorophore LR into intact HeLa cells: mixture of unlabeled S413 and free LR, versus LR alone
Method: HeLa cells (3×10^4 per well) were cultured on eight-well Lab-Teck cover slips (Nunc Inc.) or on 10-mm cover slips to sub confluent density. Following the removal of the culture medium, the cells were washed three times with PBS and then exposed to different concentrations of the Lissamine Rhodamine-labeled peptides at 37° C. or at 4° C. At the end of the incubation period the cells were washed three times in PBS and fixed in 4% (v/v) formaldehyde dissolved in PBS. Fixed cells were examined by fluorescence microscopy (Zeiss Germany, a 40× objective; Apoplan) or by confocal microscopy using an MRC 1024 confocal imaging system (Bio-Rad). The microscope (Axiovert 135M; Zeiss Germany, a 63× objective; Apoplan; NA 1.4) was equipped with an argon ion laser for Rhodamine excitation at 514 nm (emission 580).
Following fixation, the various samples were examined by fluorescence microscopy.
Synthetic peptides bearing Tat and Rev ARM sequences were synthesized and fluorescently labeled as described. […]

cultured cells = assay: Effect of the peptides on cell viability (Trypan Blue); assay type: cell-based; conditions: for toxicity to the cells (cell viability): at concentrations up to about 15 μM; for toxicity to cells, Trypan Blue test: at the concentrations used, 37° C., 30 minutes
Method: Following incubation at 37° C. for 30 minutes 100 ml, Trypan Blue solution was added (0.4% in HBSS buffer; Sigma) and HBSS buffer (5:3) and viable cells counted after 5 minutes of continuous stirring. Cell death was not greater than 20%.

HeLa cells [2] = assay: Microinjection of the peptides into HeLa cells, nuclear import; assay type: cell-based; conditions: 1 μM, 2 hours after incubation at 37° C.
Method: FIGS. 4a-d: Nuclear import of S413 and RR-S413 in microinjected cells. HeLa cells were microinjected with the fluorescently labeled peptides S413 and RR-S413 (1 μM). The injection mixture also included fluorescently labeled BSA as an injection control (data not shown). Photos were taken 2 hours after incubation at 37° C.
HeLa cells were microinjected with either S413 or with RR-S413 using the CompInject AIS2 automated microinjection system (Cell Biology Trading, Hamburg, Germany) as described previously [Neumann, M. et al. (2001) J. Cell Sci. 114, 1717-29] using a microinjection method developed by Graessmann et al., as described [Graessmann, M. and Graessmann, A. (1983) Methods Enzymol. 101, 482-492].

erythrocytes = conditions: cited from earlier work

With VKRKKKPALWKTLLKKVLKA-NH2 [rPV-S413] the “nuclei accumulation in permeabilized HeLa cells” value (permeabilized HeLa cells; both in the presence and in the absence of the cytosolic extract) was “either did not accumulate or showed poor nuclei accumulation” and the “cell penetration and intracellular localization in intact HeLa cells (FIG. 1)” value (HeLa cells [1]) was “very little, if any, accumulation within the cells' nuclei/nucleoli”.
In the case of “GRKKRRQRRRPPQC-NH2 [Tat-ARM, reference compound]”, the “toxicity to the cells (cell viability)” value (cultured cells) is reported as “not toxic”.
In the case of “RQARRNRRRC-NH2 [Rev-ARM, reference compound]”, the “toxicity to the cells (cell viability)” value (cultured cells) is reported as “not toxic” and the “cell penetration and nuclear accumulation in intact HeLa cells (FIG. 3)” value (HeLa cells [1]) is reported as “cell permeable”.
With `CCN(CC)c1ccc2c(-c3ccc(S(=O)(=O)O)cc3S(=O)(=O)[O-])c3ccc(=[N+](CC)CC)cc-3oc2c1` [L-Rhodamine, Lissamine Rhodamine, reference compound] the “co-penetration of free fluorophore LR into intact HeLa cells” value (HeLa cells [1]) was “did not occur”.
For ALWKTLLKKVLKA-NH2 [Peptide S413], the “penetration into nuclei of digitonin permeabilized HeLa cells (FIG. 2)” value (permeabilized HeLa cells; 1 μM, reticulocyte extract, 30° C., 1 hour) was “did not penetrate”, the “localization following microinjection into intact HeLa cells (FIG. 4)” value (HeLa cells [2]) was “retained in the cytoplasm; also recorded: remained in the cytoplasm” and the “toxicity to cells, Trypan Blue test” value (cultured cells) was “non-toxic”. For the same compound, the “time of incubation within which penetration into cultured HeLa cells occurs” value (HeLa cells [1]; 1 μM of the peptide, either at 37° C. or at 4° C.) was no more than 5 min, the “cell penetration and intracellular localization in intact HeLa cells (FIG. 1)” value (HeLa cells [1]) was “accumulated within the cells' cytoplasm and not in the cells' nuclei” and the “nuclear localization after long incubation” value (HeLa cells [1]; 24 hours after incubation at 37° C.) was “very little, if any, nuclear localization”. The “penetration into intact cells in ATP depleted cells” value (HeLa cells [1]; ATP depleted cells) was “occurred” and the “co-penetration of free fluorophore LR into intact HeLa cells” value (HeLa cells [1]) was “a few intracellular fluorescent dots”.
For “ALWMTLLKKVLKAAAKAALNAVLVGANA-COOH (ALWMTLLKKVLKAAAKAALNAVLVGANA-OH) [Peptide S4, reference compound]”, the toxicity to erythrocytes (erythrocytes) is listed as “highly toxic”.
For “ALWKTLLKKVLKAPKKKRKV-NH2 [Peptide S413-PV]”, the “toxicity to cells, Trypan Blue test” value (cultured cells) was “not toxic”.
In the case of PKKKRKVALWKTLLKKVLKA-NH2 [PV-S413], the “ATP dependence of nuclear import in permeabilized HeLa cells” value (permeabilized HeLa cells) is reported as “ATP-dependent”, the “nuclear import in permeabilized HeLa cells at 4° C.” value (permeabilized HeLa cells; 4° C.) is reported as “did not occur” and the “Nuclear Import of PV-S413” value (permeabilized HeLa cells; (i) Complete System: 1 mM peptide, 37° C., reticulocyte lysate) is reported as “+”. The “Nuclear Import of PV-S413” value (permeabilized HeLa cells; (ii) Hexokinase (ATP depleted system)) was “−”, the “Nuclear Import of PV-S413” value (permeabilized HeLa cells; (iii) As (i), in the absence of reticulocyte extract) was “−” and the “Nuclear Import of PV-S413” value (permeabilized HeLa cells; (iv) As (i) at 4° C.) was “−”. For the same compound, the “Nuclear Import of PV-S413” value (permeabilized HeLa cells; (v) As (i) + GTPγS (20 mM)) was “−”, the “Nuclear Import of PV-S413” value (permeabilized HeLa cells; (vi) As (i) + unlabeled SV40-NLS, 1:100 (mol/mol)) was “+/−” and the “Nuclear Import of PV-S413” value (permeabilized HeLa cells; (vii) As (i) + unlabeled S413, 1:100 (mol/mol)) was “+”. For the same compound, the “Nuclear Import of PV-S413” value (permeabilized HeLa cells; (viii) As (i) + unlabeled PV-S413, 1:100 (mol/mol)) was “+/−”, the “effect of GTPγS, WGA and excess of free unlabeled SV40 T-Ag-NLS peptide on nuclear import” value (permeabilized HeLa cells; permeabilized HeLa cells) was “inhibited” and the “toxicity to cells, Trypan Blue test” value (cultured cells) was “not toxic”. The “intracellular localization in intact HeLa cells at 4° C.” value (HeLa cells [1]; 4° C.) was “retained in the cytoplasm” and the “cell penetration and intracellular localization in intact HeLa cells (FIG. 1)” value (HeLa cells [1]) was “cell penetration and accumulation within the cells' nuclei”.
With RQARRNRRRALWKTLLKKVLKA-NH2 [RR-S413] the Nuclear uptake (permeabilized HeLa cells; ATP depleted cells) was “−”, the Nuclear uptake (permeabilized HeLa cells; In the absence of cytosolic factors) was “+” and the Nuclear uptake (permeabilized HeLa cells; In the presence of cytosolic factors) was “+/−”. The Nuclear uptake (permeabilized HeLa cells; In the presence of unlabeled RR-S413, 1:100 (mole/mole)) was “+/−”, the Nuclear uptake (permeabilized HeLa cells; In the presence of unlabeled Rev-ARM, 1:100 (mole/mole)) was “−” and the Nuclear uptake (permeabilized HeLa cells; In the presence of unlabeled SV40 T-Ag NLS, 1:100 (mole/mole)) was “+”. The Nuclear uptake (permeabilized HeLa cells; In the presence of unlabeled Tat-ARM, 1:100 (mole/mole)) was “+/−”, the Nuclear uptake (permeabilized HeLa cells; Incubation in 4° C.) was “−” and the “nuclear import in digitonin permeabilized HeLa cells” value (permeabilized HeLa cells; no addition of cytosolic extract required) was “Nuclear import was also observed”. The “localization following microinjection into intact HeLa cells (FIG. 4)” value (HeLa cells [2]) was “accumulated within the intranuclear space; also recorded: accumulated in the nuclei”, the “toxicity to the cells (cell viability)” value (cultured cells) was “not toxic” and the “cell penetration and nuclear accumulation in intact HeLa cells (FIG. 3)” value (HeLa cells [1]) was “readily penetrated into intact HeLa cells and accumulated—within a short period of time—within the nuclei of these cells”.

Reference: patent publication US20040132970A1, “Dermaseptin-derived peptides and their use in delivery systems” (priority 2002, published 2004)
